The results in this text go back to ChEMBL document CHEMBL1147327, “Developments in marine natural products. Receptor-specific bioactive compounds” (1993).

Calls of active or inactive are those of the source. No cut-off for these calls is given here.

Test [1] has as its system Candida albicans. The experiment in a line: Antifungal activity against Candida albicans in presence of 100 ppm exogenous ergosterol by agar disk diffusion assay. The class given is functional, organism-based. Background: Agar diffusion results depend on both activity and mobility in agar.
The test system of test [2] is Candida albicans. As to the kind of experiment: Antifungal activity against Candida albicans by agar disk diffusion assay. The class given is functional, organism-based.
In test [3] the test system is Candida albicans. As to the kind of experiment: Antifungal activity against Candida albicans at 0.5 ug/disk by agar disk diffusion assay. The class given is functional. The settings on record: read-out: IZ.
Test [4] deals with Candida albicans. The experiment in a line: Antifungal activity against Candida albicans at 10 ug in presence of 20 ppm exogenous ergosterol. The class given is functional.

As to `CC1=C[C@@H]2C[C@@H](C)[C@]3(C)C[C@@H]([C@@]4(C)CC[C@@H]([C@@H](C)C(=O)O)OO4)O[C@]3(C)[C@@H]2CC1`, in the test on Candida albicans [1], the outcome was Active.
For `COC(=O)[C@H](C)[C@@H]1CC[C@](C)([C@@H]2C[C@@]3(C)[C@H](C)C[C@H]4C=C(C)CC[C@H]4[C@@]3(C)O2)OO1`, the outcome with Candida albicans [2] was inactive.
As to `CCCCCCCCCCCCCC(=O)O[C@@H](c1cnco1)c1nc([C@@H](O)C[C@@H](O)[C@@H](O)[C@@H](C)O)co1` [BENGAZOLE A], the zone of inhibition at 0.5 µg/disc in the test with Candida albicans [3] worked out at 9 mm.
Still for that read-out and setting: to `CCC(C)CCCCCCCCCCC(=O)O[C@@H](c1cnco1)c1nc([C@H](O)C[C@@H](O)[C@@H](O)[C@@H](C)O)co1` (stereo partly specified) [BENGAZOLE B1] belongs 9 mm.
For the compound `CC(C)CCCCCCCCCCCC(=O)O[C@@H](c1cnco1)c1nc([C@@H](O)C[C@@H](O)[C@@H](O)[C@@H](C)O)co1` [BENGAZOLE B], the zone of inhibition at 0.5 µg/disc in the test on Candida albicans [3] was determined as 9 mm. In addition, the Activity in the test with Candida albicans [4] is on record as 50%.
As for `CCCCCCCCCCCCC(=O)O[C@@H](c1cnco1)c1nc([C@@H](O)C[C@@H](O)[C@@H](O)[C@@H](C)O)co1` [BENGAZOLE C], the zone of inhibition at 0.5 µg/disc in the test on Candida albicans [3] was 9 mm.
On the same count and under the same terms, the same measure for `CC(C)CCCCCCCCCCC(=O)O[C@@H](c1cnco1)c1nc([C@@H](O)C[C@@H](O)[C@@H](O)[C@@H](C)O)co1` [BENGAZOLE D]: 9 mm; for `CCCCCCCCCCCCCCC(=O)O[C@@H](c1cnco1)c1nc([C@@H](O)C[C@@H](O)[C@@H](O)[C@@H](C)O)co1` [BENGAZOLE E]: 9 mm; for `CCC(C)CCCCCCCCCCCC(=O)O[C@@H](c1cnco1)c1nc([C@@H](O)C[C@@H](O)[C@@H](O)[C@@H](C)O)co1` (stereo partly specified) [BENGAZOLE F]: 9 mm.
Turning to `CCCCCCCCCCCCCCCC(=O)O[C@@H](c1cnco1)c1nc([C@@H](O)C[C@@H](O)[C@@H](O)[C@@H](C)O)co1` [BENGAZOLE G], in the test on Candida albicans [3], the zone of inhibition at 0.5 µg/disc was 9 mm.
